Results reported in patent US20230286928A1, “HETEROCYCLIC COMPOUNDS USEFUL IN THE TREATMENT OF DISEASE” (Epigen Biosciences, Inc., priority 2018, published 2023).

Biological target: T1, LPA1R (Homo sapiens, UniProt Q92633)
T1 construct: host or cells: LPA1R expressing cells (Millipore, GPCR Profiler)
Experiment: Calcium flux assay: inhibition of LPA-stimulated Ca2+ flux (FLIPR, antagonist mode)
Format: cell-based
Conditions: LPA1R Ca2+ flux functional assay, LPA1R expressing cells challenged with EC80 of LPA, read-out: LPA1 R Antagonist Activity
Description: Inhibition of LPA-stimulated Ca^2+ flux was used to assess compound potency using FLIPR technology in a 96 well plate format. The assay buffer used was a modified Hanks Balanced Salt Solution (HBSS) where HBSS was supplemented to contain 20 mM HEPES and 2.5 mM Probenecid at pH7.4 (Millipore, GPCR Profiler®). LPA1R expressing cells (Millipore) were plated and prepared 24 hours prior to assay of test articles. Ca^2+ ion flux was assessed from fluorescence of a Fluo-based No Wash Ca^2+ dye. Antagonist data are generated from plates with LPA concentrations sufficient to generate 80% efficacy [EC80]. Percentage inhibition was calculated from a reduction of efficacy according to concentration of compounds of Formula I-VI. For dose responses the inhibition data was used to calculate compound IC50.
The agonist assay was conducted on a FLIPR^TETRA instrument where the test compound(s), vehicle controls, and reference agonist were added to the assay plate after a fluorescence baseline was established. The agonist assay was a total of 180 seconds and was used to assess each compound's ability to activate each GPCR assayed. Upon completion of the agonist assay, the assay plate was removed from the FLIPR^TETRA and incubated at 25° C. for seven (7) minutes. After the incubation period, the assay plate was placed back in the FLIPR^TETRA and the antagonist assay was initiated.
Antagonist Assay: Using EC80 potency values determined during the agonist assay, all pre-incubated sample compound wells were challenged with EC80 concentration of reference agonist after establishment of a fluorescence baseline. The antagonist assay was conducted using the same assay plate that was used for the agonist assay. The antagonist assay was conducted on a FLIPR^TETRA instrument where 9 vehicle controls and EC80 concentration of reference agonist were added to appropriate wells. The antagonist assay was a total of 180 seconds and was used to assess each compound's ability to inhibit each GPCR assayed.
Data Processing: All assay plate data were subjected to appropriate baseline corrections. After baseline corrections were applied, maximum fluorescence values were exported and data processed to calculate percentage activation (relative to Emax reference agonist and vehicle control values), percentage inhibition (relative to EC80 and vehicle control values), and additional statistical values (i.e. Z′, percentage variation between replicate data values) to assess the quality of each plate. Where assay plate data were rejected, additional experiments were conducted. All dose response curves were generated using GraphPad Prism. The curves were fit by utilizing “Sigmoidal Dose Response (Variable Slope)” equation where the bottom parameter was fixed to “0.” Where appropriate, the top parameter was fixed to “100” to better predict potency values when a full curve was not generated by the concentrations assayed.

T1 sequence (Q92633 whole entry): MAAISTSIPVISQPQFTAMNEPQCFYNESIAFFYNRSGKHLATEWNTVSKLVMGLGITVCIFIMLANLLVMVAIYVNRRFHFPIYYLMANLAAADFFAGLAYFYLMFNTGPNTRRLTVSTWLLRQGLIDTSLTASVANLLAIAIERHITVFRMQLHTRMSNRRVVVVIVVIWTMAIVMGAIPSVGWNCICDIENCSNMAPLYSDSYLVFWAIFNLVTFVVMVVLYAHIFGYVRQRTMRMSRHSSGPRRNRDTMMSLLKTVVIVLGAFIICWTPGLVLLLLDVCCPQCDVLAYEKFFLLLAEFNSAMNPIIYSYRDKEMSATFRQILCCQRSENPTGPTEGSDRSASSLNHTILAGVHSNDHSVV

| IC50 [µM] | Compound |
| --- | --- |
| 1 to 50 | C[C@@H](OC(=O)Nc1c(Cl)cnn1-c1ccc(-c2ccc(C3(C(=O)NC#N)CC3)cc2)cc1)c1ccccc1Cl [Compound 25, (R)-1-(2-chlorophenyl)ethyl (4-chloro-1-(4′-(1-(cyanocarbamoyl)cyclopropyl)-[1,1′-biphenyl]-4-yl)-1H-pyrazol-5-yl)carbamate] |
| < 0.3 | C[C@@H](OC(=O)Nc1c(F)cnn1-c1ccc(-c2ccc(C3(C(=O)NC#N)CC3)cc2F)cc1)c1ccccc1Cl [Compound 26, (R)-1-(2-chlorophenyl)ethyl (1-(4′-(1-(cyanocarbamoyl)cyclopropyl)-2′-fluoro-[1,1′-biphenyl]-4-yl)-4-fluoro-1H-pyrazol-5-yl)carbamate] |
| < 0.3 | C[C@@H](OC(=O)Nc1c(C#N)cnn1-c1ccc(-c2ccc(C(C)(C)C(=O)O)cc2)cc1)c1ccccc1Cl [Compound 27, (R)-2-(4′-(5-(((1-(2-chlorophenyl)ethoxy)carbonyl)amino)-4-cyano-1H-pyrazol-1-yl)-[1,1′-biphenyl]-4-yl)-2-methylpropanoic acid] |
| < 0.3 | C[C@@H](OC(=O)Nc1c(C#N)cnn1-c1ccc(-c2ccc(C(C)(C)C(=O)O)cc2)cc1)c1ccccc1 [Compound 28, (R)-2-(4′-(4-cyano-5-(((1-phenylethoxy)carbonyl)amino)-1H-pyrazol-1-yl)-[1,1′-biphenyl]-4-yl)-2-methylpropanoic acid] |
